Assay results: paper PMC5841205, “Pharmacological targeting of apelin impairs glioblastoma growth” (Brain, 2017)
Positions of bridges follow the written chain, without caps; N, C: chain ends. Residues, ends and D or L forms follow the SMILES beside them.

Key:
[1] = test system: tumour-bearing mice; experiment: Cardiac frequency, blood pressure and glycaemia, MM54; format: in vivo, mouse; settings: MM54 2 mg/kg bi-weekly for 4 weeks
Method: To test potential toxic effects of MM54 and MM193 in vivo, mice were administered 2 mg/kg of MM54, MM193 or vehicle bi-weekly for 4 weeks. At sacrifice, blood was taken for analysis and the heart, kidney, aorta and liver removed, weighed and fixed for histological analysis. For the glycaemic study, animals were starved for 6 h prior to sacrifice.
Figure 6 Pharmacological inhibition of APLNR by MM54 reduces xenograft progression. (A) Tumour-bearing mice were fasted for 6 h and the effect of either MM54 (2 mg/kg) or DMSO vehicle treatment on glycaemia measured via blood analysis. (B) Cardiac frequency and blood pressure were measured in random-fed tumour-bearing animals. (C) Nude mice were implanted with GSC#9 (5 × 10^5 cells) in each flank and treated with either DMSO vehicle or the APLNR antagonist (MM54, 2 mg/kg) bi-weekly from Week 4. Tumour volume was measured weekly until Week 11. n = 10/group. (D and E) Cryosections from GSC tumours were assessed for PECAM (red), Ki67 (green), NESTIN (green), SOX2 (green) and apoptosis (TUNEL). (F) Tumour sections were assessed for pS9-GSK3β staining in DMSO vehicle- and MM54-treated animals. Scale bars = 40 µm. […] All panels are representative of n = 3, unless specified.

[2] = Plasma pharmacokinetics after intraperitoneal administration; format: in vivo, mouse
Method: (§1) B. MM54 compound was solubilized in water and administered intraperitoneally (IP) at the dose of 3.6 mg/kg to healthy mice.
(§2) Mice (3/group) were sacrificed at 10 min, 30 min, 60 min, 2h, 4h, 6h, 8h and 24h post-injection. Plasma and brains were collected and further processed for LC-MS/MS analysis. B/P index is 0.24. AUC is area under the curve. n.d. stands for ‘not able to be

[3] = Brain pharmacokinetics after intraperitoneal administration; format: in vivo, mouse
Method: as §1, §2

[4] = Solubility in vehicles; format: physicochemical
Method: Conditions Solubility Solubility […]
saline (10%) + hydroxypropyl-β-cyclodextrin >0.69 >1.20 […]
A. MM54 compound (1 mg) was re-suspended in the different vehicles for 24h, RT, under gentle rotation. Solutions were analysed by HPLC and concentrations calculated using DMSO-re-suspended MM54 as standard. […]

[5] = test system: heart, kidney and liver of mice; experiment: Histological and biochemical analysis of heart, kidney and liver; format: in vivo, mouse
Method: To test potential toxic effects of MM54 and MM193 in vivo, mice were administered 2 mg/kg of MM54, MM193 or vehicle bi-weekly for 4 weeks. At sacrifice, blood was taken for analysis and the heart, kidney, aorta and liver removed, weighed and fixed for histological analysis. For the glycaemic study, animals were starved for 6 h prior to sacrifice. […]
In order to test potential toxic effects of MM54 in vivo, C57Bl/6J female mice were administered 2 mg/kg of MM54
or DMSO vehicle, bi-weekly for 4 weeks. At sacrifice, blood was taken for analysis and the heart, kidney, aorta and
liver removed, weighed and fixed for histological analysis (as shown in Figure S4). n=4 mice/group, 63 mean±SEM.

[6] = test system: panel of normal human and primary glioblastoma cell lines; experiment: Cell viability (UptiBlue), cell line panel; format: cell-based; settings: MM54 2, 20 and 100 μM, 3 days; cardiomyocytes, HaCAT, CaCo2, hCMEC/D3, Jurkat, SH-SY5Y, SVGp12, glioblastoma lines
Method: Cell viability in response to MM54 was tested using the UptiBlue reagent (Interchim), a fluorometric/colorimetric growth indicator based on the detection of metabolic activity. Briefly, cells were seeded at a density of 2 × 10^3 per well, UptiBlue added at a concentration of 10% v/v and cells maintained at 37°C 5% CO2 until analysis. Absorbance was measured at Day 5 following treatment at 570 and 600 nm on a FLUOStar OPTIMA (BMG Labtech) plate reader, and the percentage of cell viability calculated according to the manufacturer’s instructions.
Figure 5 Pharmacological inhibition of APLNR by MM54 impairs the in vitro expansion of temozolomide-resistant GSCs. (A) Cell viability following treatment with DMSO, MM54 (2, 20 and 100 μM) or temozolomide (TMZ, 50 μM) was measured using UptiBlue in different cell types for 3 days. […] (B and C) Cell viability following treatment with DMSO or TMZ (100 μM) was measured using UptiBlue in GSCs #1, #4, #9, and #12 for 3 days. […] (D) GSC#1 viability was assessed following combined treatment with MM54 (0.2–20 μM) and TMZ (constant ratios TMZ:MM54 2.5:1, 5:1, and 10:1) in NS and human brain endothelial cell-conditioned medium (EC-CM) conditions. (E and F) Tumoursphere per field of view (fov) and ALDH activity were assessed in response to MM54 (0.2–100 μM) or TMZ (10–100 μM) treatment at Day 5. […]

[7] = healthy animals, intraperitoneal
[8] = healthy mice, IP 3.6 mg/kg in water, 3/group, LC-MS/MS
[9] = mouse, plasma, healthy mice, IP 3.6 mg/kg in water, 3/group, LC-MS/MS
[10] = saline (10%) + hydroxypropyl-β-cyclodextrin, 1 mg, 24h, RT, gentle rotation, HPLC
[11] = saline (10%) + kolliphor EL, 1 mg, 24h, RT, gentle rotation, HPLC
[12] = saline (15%) + kolliphor HS15 + PEG (10%) + ethanol (5%), 1 mg, 24h, RT, gentle rotation, HPLC
[13] = saline (15%) + kolliphor HS15, 1 mg, 24h, RT, gentle rotation, HPLC
[14] = saline (NaCl 0.9%), 1 mg resuspended, 24h, RT, gentle rotation, HPLC

SMILES: CC(C)C[C@@H]1NC(=O)[C@H](CCCNC(=N)N)NC(=O)[C@@H]2CCCN2C(=O)[C@H](CCCNC(=N)N)NC(=O)[C@@H](NC(=O)[C@H](Cc2c[nH]cn2)NC(=O)[C@H](CCCCN)NC(=O)[C@@H]2CSSC[C@H](N)C(=O)N[C@@H](CCCNC(=N)N)C(=O)N3CCC[C@H]3C(=O)N[C@@H](CCCNC(=N)N)C(=O)N[C@@H](CC(C)C)C(=O)N2)CSSC[C@@H](C(=O)O)NC1=O [MM54, cyclo(1–6)CRPRLC-KH-cyclo(9–14)CRPRLC] (H-CRPRLCKHCRPRLC-OH; disulfide 1-6, 9-14)
- cardiac frequency, blood pressure and glycaemic index [1]: did not induce alterations to these parameters
- detection in plasma [2, 7]: detected in the plasma and the brain
- Cmax (µM), plasma [2, 8]: 0.6 µM
- AUC [2, 9]: 1470 ng·h/mL
- half-life [2, 9]: 2.37 ± 0.367 h
- Cmax ([2]; mouse, plasma, healthy mice, IP 3.6 mg/kg in water, 3/group, LC-MS/MS, read-out: Cmax (µg.ml-1), plasma): 1.1 µg/mL
- Tmax ([2]; mouse, plasma, healthy mice, IP 3.6 mg/kg in water, 3/group, LC-MS/MS, read-out: Time Cmax, plasma (converted)): 0.167 h
- detection in brain [3, 7]: detected in the plasma and the brain
- Cmax (µM), brain [3, 8]: 0.14 µM
- Cmax (µg.ml-1), brain [3, 8]: 0.26 µg/mL
- Time Cmax, brain [3, 8]: 10 min
- Kp ([3]; mouse, healthy mice, IP 3.6 mg/kg in water, brain vs plasma, read-out: B/P index): 0.24
- solubility ([4]; in the tested solutions (vehicles)): good solubility in the tested solutions
- Solubility (mM), saline + hydroxypropyl-β-cyclodextrin [4, 10]: > 0.69 mM
- Solubility (mg.ml-1), saline + hydroxypropyl-β-cyclodextrin [4, 10]: > 1.20 mg/mL
- Solubility (mM), saline + kolliphor EL [4, 11]: > 0.60 mM
- Solubility (mg.ml-1), saline + kolliphor EL [4, 11]: > 1.04 mg/mL
- Solubility (mM), saline + kolliphor HS15 + PEG + ethanol [4, 12]: > 0.73 mM
- Solubility (mg.ml-1), saline + kolliphor HS15 + PEG + ethanol [4, 12]: > 1.27 mg/mL
- Solubility (mM), saline + kolliphor HS15 [4, 13]: > 0.69 mM
- Solubility (mg.ml-1), saline + kolliphor HS15 [4, 13]: > 1.20 mg/mL
- Solubility (mg.ml-1), saline [4, 14]: > 1.27 mg/mL
- solubility at 24 h [4, 14]: > 0.73 mM
- histological and biochemical analysis of heart, kidney and liver ([5]; MM54 2 mg/kg bi-weekly for 4 weeks vs vehicle): revealed no differences between MM54-treated animals and vehicle controls
- overt adverse effects in vivo ([5]; present dose (2 mg/kg), repeated administration): does not exert any overt adverse effects in vivo
- toxicity (viability) in cell line panel [6]: no overtly toxic effects on any of the cell lines tested
